According to patent US20030162838A1, “Bactericide, antiseptic, dermally applicable composition, washing composition, antibacterial fiber aggregate, method for eradicating a microorganism, and method for inhibiting the proliferation of a microorgamism” (Ajinomoto Co., Inc., priority 2001, published 2003):
Entries after “also recorded” stand apart in the source; their conditions may differ.

Tests used:
Format in all cases: cell-based
[1] = tested on: Staphylococcus aureus (ATCC6538); experiment: Antibacterial activity evaluation, agar dilution MIC; conditions: Muller-Hinton agar medium, 35° C. for 48 hours
Description: (§1) 4-Guanidinobutyldodecanamide hydrochloride (LAG-HCl) which is a salt of an amide group-containing guanidine derivative and N-cocoyl-L-arginine ethyl ester-DL-pyrrolidone carboxylate which is an N-long chain acyl basic amino acid derivative were examined for their concentrations at which the growth of each test strain was inhibited completely (MIC).
(§2) The test strains employed were Escherichia coli (ATCC8739), Pseudomonas aeruginosa (ATCC9027), Staphylococcus aureus (ATCC6538), Streptococcus mutans (ATCC35275), Propionibacterium acnes (ATCC6919), Candida albicans (ATCC10231), Aspergillus niger (ATCC16404), Trichophyton mentagrophytes (ATCC11480) and Malassezia furfur (ATCC14521).
(§3) A bacterial cell suspension of E.coli, P.aeruginosa, S.aureus and S.mutans was obtained by incubation in a sensitive broth medium at 35° C. for 20 hours. The bacterial cell suspension of P.acnes was obtained by anaerobic incubation in a GAM agar medium at 35° C. for 20 hours followed by collecting cells with a platinum loop spatula followed by suspending the cells in a sterilized physiological saline at a cell density at about 10^8 cells/ml. The bacterial cell suspension of C.albicans was obtained by incubation in a potato dextrose agar medium at 25° C. for 48 hours followed by collecting cells with a platinum loop spatula followed by suspending the cells in a sterilized physiological saline at a cell density at about 10^6 cells/ml. The bacterial cell suspension of A.niger was obtained by incubation in a potato dextrose agar medium at 25° C. for 7 days followed by collecting cells with a platinum loop spatula followed by suspending the cells in a sterilized physiological saline followed by filtration through a sterilized gauze to adjust at a cell density at about 10^6 cells/ml. The bacterial cell suspension of T.mentagrophytes was obtained by incubation in a Sabouraud's agar medium at 25° C. for 7 days followed by collecting spores and hyphae with a platinum loop spatula followed by suspending the cells in a sterilized physiological saline followed by pelletizing using a homogenizer to adjust at a cell density at about 10^6 cells/ml. The bacterial cell suspension of M.furfur was obtained by incubation in an YMO agar medium at 25° C. for 7 days followed by suspending the test strain in a sterilized phosphate-buffered physiological saline at a cell density at about 10^6 cells/ml.
(§4) To obtain an antibacterial activity assay sample, 4-guanidinobutyldodecanamide hydrochloride was dissolved in ethylene glycol at 2% which was used as a mother liquor which was diluted with water subsequently. N-cocoyl-L-arginine ethyl ester-DL-pyrrolidone carboxylate was dissolved in water to prepare a test solution. The respective minimum growth inhibition concentration at which no microbial growth was observed was determined (μg/ml).
(§5) The agar medium (19 ml) was dissolved once and then kept at 50° C., and to this solution 1 ml of each diluted […] was added until reaching the intended concentration and mixed thoroughly and then solidified.
(§6) Subsequently, the cell suspension of each test strain was sampled using a platinum loop spatula, with which an about 1 cm line was drawn on the antibacterial agent-supplemented agar plate. Each plate was incubated at the respective temperature for the respective time period shown below. […]
(§7) For E.coli, P.aeruginosa, S.aureus, S.mutans, P.acnes, C.albicans, A.niger, T.mentagrophytes, M.furfur, the respective agar medium indicated in the Table 1 shown above was shown. […]

[2] = tested on: Candida albicans (ATCC10231); experiment: as above; conditions: Potato dextrose agar medium, 25° C. for 48 hours
Description: as §1, §2, §3, §4, §5, §6, §7

[3] = tested on: Streptococcus mutans (ATCC35275); experiment: as above; conditions: Muller-Hinton agar medium, 35° C. for 48 hours
Description: as §1, §2, §3, §4, §5, §6, §7

[4] = tested on: Trichophyton mentagrophytes (ATCC11480); experiment: as above; conditions: Sabouraud's agar medium, 25° C. for 7 days
Description: as §1, §2, §3, §4, §5, §6, §7

[5] = tested on: Propionibacterium acnes (ATCC6919); experiment: as above; conditions: GAM agar medium, 35° C. for 48 hours (anaerobic incubation)
Description: as §1, §2, §3, §4, §5, §6, §7

[6] = tested on: Aspergillus niger (ATCC16404); experiment: as above; conditions: Potato dextrose agar medium, 25° C. for 5 days
Description: as §1, §2, §3, §4, §5, §6, §7

[7] = tested on: Pseudomonas aeruginosa (ATCC9027); experiment: as above; conditions: Muller-Hinton agar medium, 35° C. for 48 hours
Description: as §1, §2, §3, §4, §5, §6, §7

[8] = tested on: Escherichia coli (ATCC8739); experiment: as above; conditions: Muller-Hinton agar medium, 35° C. for 48 hours
Description: as §1, §2, §3, §4, §5, §6, §7

[9] = tested on: Malassezia furfur (ATCC14521); experiment: as above; conditions: YMO agar medium, 25° C. for 7 days
Description: as §1, §2, §3, §4, §5, §6, §7

test strains = experiment: Antibacterial activity evaluation, overall verdict over all test strains; conditions: summary of the MIC tables
Description: as §1, §2, §4
(§8) In order to evaluate the contribution of acyl moiety to the antibacterial activity in amido group-containing guanidine derivatives, 4-guanidinobutyldecanamide acetate (DAG-AcOH), 4-guanidinobutyldodecanamide acetate (LAG-AcOH), 4-guanidinobutymyristilamide acetate (MAG-AcOH), 4-guanidinobutylpalmitylamide acetate (PAG-AcOH) were examined for their concentrations at which the growth of each test strain was inhibited completely (MIC).
as §2, with “aeruglnosa” for “aeruginosa”, “(ATCC11480),” for “(ATCC11480) and”, “(ATCC14521), MRSA and Cladosporium cladosporioides (IFO6348).” for “(ATCC14521).”
(§9) The respective minimum growth inhibition concentration at which no microbial growth was observed was determined (Table 4).

[10] = tested on: Cladosporium cladosporioides (IFO6348); experiment: Antibacterial activity evaluation, agar dilution MIC; conditions: Potato dextrose agar medium, 25° C. for 5 days
Description: as §8
as §2, with “aeruglnosa” for “aeruginosa”, “(ATCC11480),” for “(ATCC11480) and”, “(ATCC14521), MRSA and Cladosporium cladosporioides (IFO6348).” for “(ATCC14521).”
The bacterial cell suspension of Cladosporium cladosporioides was obtained by incubation in a potato dextrose agar medium at 25° C. for 7 days followed by collecting cells with a platinum loop spatula followed by suspending […] the cells in a sterilized physiological saline followed by filtration through a sterilized gauze to adjust at a cell density at about 10^6 cells /ml.
(§10) To obtain an antibacterial activity assay sample, each compound was dissolved in water to prepare a test solution, which was used as a mother liquor which was diluted with water subsequently.
as §9
(§11) The agar medium (19 ml) was dissolved once and then kept at 50° C., and to this solution 1 ml of each diluted […] was added until reaching the intended concentration and mixed thoroughly and solidified.
(§12) Subsequently, the cell suspension of each test strain was sampled using a platinum loop spatula, with which an about 1 cm line was drawn on the antibacterial agent-supplemented agar plate. Each plate was incubated at the respective temperature for the respective time period shown below.

MRSA = experiment: as above; conditions: Muller-Hinton agar medium, 35° C. for 48 hours
Description: as §8
as §2, with “aeruglnosa” for “aeruginosa”, “(ATCC11480),” for “(ATCC11480) and”, “(ATCC14521), MRSA and Cladosporium cladosporioides (IFO6348).” for “(ATCC14521).”
The bacterial cell suspension of MRSA was obtained by incubation in a sensitive broth medium at 35° C. for 20 hours.
as §10, §9, §11, §12

4-Guanidinobutyldodecanamide hydrochloride [LAG-HCl]
MIC, S. aureus [1]: 7.5 to 10 µg/mL | MIC, C. albicans [2]: 500 to 750 µg/mL | MIC, S. mutans [3]: 5 to 7.5 µg/mL | MIC, T. mentagrophytes [4]: 75 to 100 µg/mL | MIC, P. acnes [5]: 7.5 to 10 µg/mL | MIC, A. niger [6]: 200 to 300 µg/mL | MIC, P. aeruginosa [7]: 75 to 100 µg/mL | MIC, E. coli [8]: 75 to 100 µg/mL | MIC, M. furfur [9]: 100 to 150 µg/mL | antibacterial activity against any of the test strains (verdict in words) (test strains): satisfactory antibacterial activity

CC(=O)O.CCCCCCCCCC(=O)NCCCCNC(=N)N [DAG-AcOH, 4-guanidinobutyldecanamide acetate]
MIC, C. cladosporioides [10]: 200 to 300 µg/mL | MIC, S. aureus [1]: 30 to 50 µg/mL | MIC, C. albicans [2]: 300 to 500 µg/mL | MIC, S. mutans [3]: 20 to 30 µg/mL | MIC, T. mentagrophytes [4]: 75 to 100 µg/mL | MIC, P. acnes [5]: 30 to 50 µg/mL | MIC, A. niger [6]: 300 to 500 µg/mL | MIC, P. aeruginosa [7]: 200 to 300 µg/mL | MIC, E. coli [8]: 150 to 200 µg/mL | MIC, M. furfur [9]: 50 to 75 µg/mL | antibacterial activity against any of the test strains (verdict in words) (test strains): satisfactory antibacterial activity | MIC, MRSA (MRSA): 50 to 75 µg/mL

N-cocoyl-L-arginine ethyl ester-DL-pyrrolidone carboxylate [CAE, reference compound]
MIC, S. aureus [1]: 5 to 7.5 µg/mL | MIC, C. albicans [2]: 300 to 500 µg/mL | MIC, S. mutans [3]: 5 to 7.5 µg/mL | MIC, T. mentagrophytes [4]: 100 to 150 µg/mL | MIC, P. acnes [5]: 20 to 30 µg/mL | MIC, A. niger [6]: 300 to 500 µg/mL | MIC, P. aeruginosa [7]: 200 to 300 µg/mL | MIC, E. coli [8]: 75 to 100 µg/mL | MIC, M. furfur [9]: 75 to 100 µg/mL | antibacterial activity against any of the test strains (verdict in words) (test strains): satisfactory antibacterial activity

CC(=O)O.CCCCCCCCCCCC(=O)NCCCCNC(=N)N [LAG-AcOH, 4-guanidinobutyldodecanamide acetate]
MIC, C. cladosporioides [10]: 150 to 200 µg/mL | MIC, S. aureus [1]: 2 to 3 µg/mL | MIC, C. albicans [2]: 300 to 500 µg/mL | MIC, S. mutans [3]: 5 to 7.5 µg/mL | MIC, T. mentagrophytes [4]: 30 to 50 µg/mL | MIC, P. acnes [5]: 10 to 15 µg/mL | MIC, A. niger [6]: 200 to 300 µg/mL | MIC, P. aeruginosa [7]: 75 to 100 µg/mL | MIC, E. coli [8]: 30 to 50 µg/mL | MIC, M. furfur [9]: 50 to 75 µg/mL | antibacterial activity against any of the test strains (verdict in words) (test strains; acetate): satisfactory antibacterial activity; also recorded: the best antibacterial activity | MIC, MRSA (MRSA): 10 to 15 µg/mL

CC(=O)O.CCCCCCCCCCCCCC(=O)NCCCCN=C(N)N [MAG-AcOH, 4-guanidinobutymyristilamide acetate]
MIC, C. cladosporioides [10]: 200 to 300 µg/mL | MIC, S. aureus [1]: 3 to 5 µg/mL | MIC, C. albicans [2]: 500 to 750 µg/mL | MIC, S. mutans [3]: 3 to 5 µg/mL | MIC, T. mentagrophytes [4]: 75 to 100 µg/mL | MIC, P. acnes [5]: 10 to 15 µg/mL | MIC, A. niger [6]: 300 to 500 µg/mL | MIC, P. aeruginosa [7]: 300 to 500 µg/mL | MIC, E. coli [8]: 50 to 75 µg/mL | MIC, M. furfur [9]: 100 to 150 µg/mL | antibacterial activity against any of the test strains (verdict in words) (test strains): satisfactory antibacterial activity | MIC, MRSA (MRSA): 10 to 15 µg/mL
